The test system of one series is HCT116 xenograft. In words: HCT116 xenograft model in NSG mice (bioluminescence imaging). In kind it is in vivo. The protocol:
(A) 1×10^6 luciferase-expressing HCT116 cells, alone or with 2×10^7 NKL cells, were subcutaneously injected into 8- to 10-week-old NSG mice (n=4). […] HCT116 xenograft growth was analyzed by performing bioluminescence imaging on day 15. (B) 1×10^6 HCT116 cells were subcutaneously injected into 8- to 10-week-old NSG mice. […] Tumor sections were prepared for ULBP2 immunohistochemical staining on day 15. (C) NKG2D expression on the cell surface of YT-INDY and YT-INDY-NKG2D cells was analyzed by flow cytometry. […] (D) 1×10^6 luciferase-expressing HCT116 cells were subcutaneously injected into 8- to 10-week-old NSG mice with either 1×10^6 YT-INDY or YT-INDY-NKG2D cells (n=8 per group). […] HCT116 xenograft growth was analyzed by performing bioluminescence imaging on day 15. (E) MICA-B and ULBP1-3 expressions on the cell surface of HCT116 or HCT116-ΔNKG2DLs cells were analyzed by flow cytometry. […] (F) 1×10^6 luciferase-expressing HCT116 or HCT116-ΔNKG2DLs cells were subcutaneously injected into 8- to 10-week-old NSG mice with 1×10^6 YT-INDY-NKG2D cells (n=8 per group). […] HCT116 xenograft growth was analyzed by performing bioluminescence imaging on day 10. […] 1×10^6 each of luciferase-expressing HCT116 cells and YT-INDY-NKG2D were injected subcutaneously into the mice on day 0. HCT116 xenograft growth was analyzed by performing bioluminescence imaging on day 3. * P<0.05, ** P<0.01, *** P<0.005, **** P<0.0005.
Luciferase-expressing HCT116 and HT29 cells were generated by lentiviral transduction of the cells with a CMV promoter-driven luciferase expression construct engineered from the pLL3.7 vector. […] Bioluminescence imaging was performed in a Xenogen imaging system to monitor tumor growth and the data were analyzed using Living Image software (Caliper LifeSciences). For the lung metastasis model using HT29 cells, lungs were harvested for bioluminescence imaging and then fixed in 10% neutral buffered formalin, paraffin embedded, sectioned, and stained with hematoxylin and eosin. A total of six lung sections at 100-μm intervals were collected for the observation of pulmonary nodules. For the hepatic metastasis model, 0.5×10^6 of luciferase-expressing HCT116 cells were intrasplenically implanted into 6-8 week-old NSG mice.

For series [1], the system named is NKG2DL (MICA-B, ULBP1-3) surface expression. In words: flow cytometry of NKG2DL cell surface expression in cancer cell lines. In kind it is cell-based, human. As for the experimental part:
Data are representative of five independent experiments. […] Controls were stained with APC-conjugated anti-human Fc antibody alone without preincubation with NKG2D-Fc. Data are representative of three independent experiments. […] Results are representative of two independent experiments. […] (E) NKG2DL mRNA expression in the colon cancer cell lines was analyzed by qRT-PCR analysis. Data are normalized to GAPDH mRNA levels and are presented as fold-change relative to the expression in DMSO-treated cells (n=5). (F) Lentiviral-based luciferase reporter construct containing the putative ULBP2 promoter (−2415 to 0 bp from the transcription start site: 73 bp upstream of ATG) was transduced into the colon cancer cell lines. Positively transduced cells were selected by puromycin treatment (2 μg/ml) for 2 weeks. […] Data shown are expressed as fold-change relative to the luciferase activity observed in DMSO-treated cells (n=3). * P<0.05, ** P<0.01.
Cell lines were stained with allophycocyanin-conjugated anti-MICA, anti-MICB, or anti-ULBP2 antibodies for 20 min at 4° C. For ULBP1 and ULBP3 staining, cells were first incubated with anti-ULBP1 and anti-ULBP3 antibodies and then with allophycocyanin-conjugated goat anti-mouse IgG antibody. To analyze total NKG2DL cell surface expression, cells were first incubated with human NKG2D-Fc for 20 min at 4° C. and then with allophycocyanin-conjugated mouse anti-human IgG (Fc) antibody. Cells were washed and analyzed on a C6 flow cytometer (Accuri). Data were analyzed using FlowJo software (TreeStar).

The subject of series [2] is HCT116 cells, hepatic metastasis. In words: hepatic metastasis model (intrasplenic HCT116). It is filed as in vivo, NSG mice. The following applies: i.p. every other day. As for the experimental part: (B) HCT116 cells were transfected with control KD or RXR-gamma-KD1 siRNA on day 0. […] The mRNA expression of TIMP2 and TIMP3 was analyzed by qRT-PCR on day 5. Data are shown as relative mRNA fold change of SPIR-treated RXR-gamma-KD1 cells to control KD cells (n=3). (C) HCT116 cells were transfected with control KD or RXR-gamma-KD1 siRNA on day 0. […] Data are calculated as the percentage change in distance of migration relative to that of DMSO-treated cells (n=3). (D) HCT116 cells were transfected with control KD, RXR-gamma-KD1, TIMP2-KD or TIMP3-KD siRNA on day 0. […] The number of cells that invaded the ECM was determined after 36 h. Data are expressed as percentage change in tumor invasion relative to that of DMSO-treated cells (n=3). (E) HCT116 cells were transfected with control-KD, TIMP2-KD or TIMP3-KD siRNA on day 0. […] Hepatic metastasis was analyzed by performing bioluminescence imaging on day 10.* P<0.05, ** P<0.005, *** P<0.0001.
Luciferase-expressing HCT116 and HT29 cells were generated by lentiviral transduction of the cells with a CMV promoter-driven luciferase expression construct engineered from the pLL3.7 vector. […] Bioluminescence imaging was performed in a Xenogen imaging system to monitor tumor growth and the data were analyzed using Living Image software (Caliper LifeSciences). […]

The test system of a further series is HDAC. In words: HDAC activity and HDAC3 mRNA after SPIR treatment. In kind it is cell-based, human.

Turning to `CC(=O)S[C@@H]1CC2=CC(=O)CC[C@]2(C)[C@H]2CC[C@@]3(C)[C@@H](CC[C@@]34CCC(=O)O4)[C@H]12` [SPIR, spironolactone], in the series on HCT116 xenograft (1.25 mg/mouse i.p.), the “tumor growth in the presence of YT-INDY-NKG2D” value is “strongly suppressed the tumor growth”. Moreover, the “tumor growth, mice bearing NKL cells” value with HCT116 xenograft (HCT116 plus NKL cells, 1.25 mg/mouse i.p. twice a week for 2 weeks) is listed as “suppressed tumor growth considerably”. In the series on HCT116 xenograft (HCT116 without NKL cells, 1.25 mg/mouse i.p. twice a week for 2 weeks), the “tumor growth, SPIR alone” value is reported as “did not affect tumor growth”. Besides, the “HCT116 xenograft growth in YT-INDY-bearing mice” value in the series on HCT116 xenograft (NKG2D-negative NK cell line) was “did not reduce the HCT116 xenograft growth”. Further, in the series on HCT116 xenograft (NKG2DL-deficient HCT116 vs HCT116, YT-INDY-NKG2D), the “tumor susceptibility to NK cell killing triggered by SPIR, HCT116-ΔNKG2DLs” value is given as “significantly reduced tumor susceptibility to NK cell killing”. Besides, in the series on HCT116 xenograft (immunohistochemical staining day 15), the “ULBP2 expression in the HCT116 xenografts” value was “significantly enhanced ULBP2 expression”. The “tumor development after pretreatment” value in the series on HCT116 xenograft (pretreating twice a week for 2 weeks before HCT116 and YT-INDY-NKG2D implantation) is listed as “greatly inhibited tumor development”. The ULBP2 expression result in series [1] (HCT116, HT29, SW480, HCT15, SPIR 56 μM, 3 days, dose-dependent) is “significantly increased”. Further, in series [1] (HCT116 cells, 56 μM, 3 days), the “expression of other NK cell ligands (CD112, CD155, Fas, HLAs)” value was “no increase in expression”. For the same compound, in series [1] (SW480 and HCT15 cells), the ULBP1 expression entry is “selective increase”. In series [1] (all SPIR-treated cells), the “MICA/B and ULBP3 expression” value was “enhancement”. The “total NKG2DL expression by soluble NKG2D-Fc staining” value in series [1] (colon cancer cell lines) is listed as “Consistent NKG2DL upregulation”. In addition, the “viability of the cells” value in series [1] (colon cancer cell lines, SPIR treatment) is reported as “without affecting the viability of the cells”. Also, the hepatic tumor metastasis result in series [2] is “significantly suppresses tumor metastasis”. In addition, the HDAC activities entry with HDAC (SW480 or HCT116 cells) is listed as “did not inhibit HDAC activities”. For the same compound, the “mRNA expression of HDAC3” value with HDAC (after SPIR treatment) is given as “no significant change”.
